Literature values, collected in patent US20250019715A1, “Ribosomal Biosynthesis Of Moroidin Peptides In Plants” (Whitehead Institute for Biomedical Research, priority 2021, published 2025).
Ends that are not written are not given here.

Key:
tubulin polymerization = conditions: qualitative statement from prior knowledge
pain sensation = conditions: isolated as pain-causing agent from Dendrocnide moroides

Molecule | inhibitory activity against tubulin polymerization (tubulin polymerization) | pain-causing activity (pain sensation)
celogentin C (QLLVWPRH; bridge (positions not given here); also: bicyclic crosslinks, places not given here) [moroidin structural analog from Celosia argentea, core peptide QLLVWPRH] | potent inhibitory activity | –
CC(C)C[C@@H]1NC(=O)[C@@H](NC(=O)[C@@H]2CCC(=O)N2)[C@@H](C(C)C)c2ccc3c4c([nH]c3c2)-n2cnc(c2)C[C@@H](C(=O)O)NC(=O)CNC(=O)[C@H](CCCN=C(N)N)NC(=O)[C@H](C4)NC(=O)[C@H](C(C)C)NC1=O [moroidin] | potent inhibitory activity | pain-causing agent
